Where “and” joins values, the source holds several entries; their conditions need not be identical. Equal values may be shown once.
Tests used:
[1] = molecular target: T1, isolated human 20S proteasome, T-L activity (Homo sapiens, UniProt P49720+Q99436); assay: Proteasome inhibition assay in isolated human 20S proteasomes (Proteasome-Glo), T-L activity; assay type: biochemical; conditions: for inhibition at 10 µM: read-out: percentage of proteasome inhibition, T-L, isolated 20S proteasome; for percentage of proteasome inhibition, T-L, isolated human 20S proteasome: at 100 µM, Table 1 legend: bortezomib positive control 10 µM; for IC50: mean ± SD
T1 construct: human purified erythrocyte-derived 20S proteasome; purchased Enzo Life Sciences, Inc; host or cells: human erythrocytes (natural source)
Source text: In this assay, the peptide substrates are bound to aminoluciferin (Suc-LLVY-AML for CT-L activity, Z-nLPnLD-AML for C-L, and Z-LRR-AML for T-L), leading the cleavage of these substrates by the proteasome to the release of free aminoluciferin, which is the substrate of the buffer-contained luciferase.
To evaluate human purified erythrocyte-derived 20S proteasome inhibitory activity of the chosen compounds, the Proteasome-Glo™ 3-substrate system (Promega Corporation, Madison, WI, USA) was employed. The Proteasome-Glo™ reagents of the three proteolytic activities were prepared according to the manufacturer’s instructions, aliquoted, and stored at either −20 °C or 4 °C, avoiding freezing–thaw cycles. […] The purified 20S proteasome (Enzo Life Sciences, Inc., Farmingdale, NY, USA) was diluted in HEPES buffer 10 mM, pH 7.4, to a concentration experimentally adjusted to the signal/noise ratio obtained with each particular lot of Proteasome-Glo™ reagent, in order to have a good compromise between sensitivity and linear response. […] All assays were performed in white-walled multiwell plates (Thermo Scientific™ Sterilin™ White Microtiter™ plates, Thermo Fisher Scientific, Paisley, UK) in duplicates. The proteasome solution (25 μL) was added to each well first, then the diluted solutions of the assayed compounds (25 μL), and lastly the Proteasome-Glo™ Reagent (50 μL). […] Reagents were added to the plate well on ice, and the plate was then transferred to the plate luminometer (SpectraMax®, Molecular Devices, LLC, San Jose, CA, USA) set at 37 °C, gently mixed for 30 s, and the measurements were immediately started in kinetic mode, with data collected every 5 min for at least 60 min.
All compounds were dissolved in DMSO at a concentration of 10 mM and stored at −20 °C or 4 °C. Solutions of the test compounds were prepared at their adequate dilutions in 10 mM HEPES buffer pH 7.6 before each experiment.
To calculate the proteasome activity over time, the value of mean relative luminescence units (RLU) of blank wells at each respective time point was subtracted, and then the ratio between mean RLU of the sample and mean RLU of the positive control wells was calculated for each time point and expressed as percentage.

[2] = Cell viability, MTT assay, Jurkat; assay type: cell-based, human; conditions: human, Jurkat E6.1 T-cell leukemia cells, read-out: percentage of cell viability, MTT, Jurkat; for viability at 72 h, 10 µM: at 10 µM; for viability at 72 h, 100 µM: at 100 µM
Experimental: (§1) Whenever possible, additional concentrations were tested and IC50 values were determined.
(§2) Human leukemia Jurkat E6.1 T-cell line and K562-cell line were originally obtained from ATCC Collections (Manassas, VA, USA); human HT-29 and HCT116 colorectal carcinoma-cell lines were obtained from ECACC (Porton Down, Porton, UK). Cells were passaged for less than 6 months after and routinely tested for mycoplasma contamination using Mycoalert detection kit (Lonza, Basel, Switzerland). Jurkat, K562, and HT-29 cells were maintained in Roswell Park Memorial Institute (RPMI) 1640 with GlutaMAX™, supplemented with 1% antibiotic mixture (100 µg/mL streptomycin and 100 U/mL penicillin) and 10% heat-inactivated foetal bovine serum (FBS) (all from Gibco, Thermo Fisher Scientific, Paisley, UK). HCT116 cells were maintained in Dulbecco’s Modified Eagle Medium (DMEM) with GlutaMAX™, supplemented with 1% antibiotic mixture (100 µg/mL streptomycin and 100 U/mL penicillin) and 10% heat-inactivated FBS (all from Gibco, Thermo Fisher Scientific, Paisley, UK). Incubation was performed at 37 °C in a 5% CO2 atmosphere. Cells were routinely passaged every 2 or 3 days at 70–90% confluence; TrypLE Express (Gibco, Thermo Fisher Scientific, Paisley, UK) was used as dissociation agent for adherent cells. Trypan blue (Gibco, Thermo Fisher Scientific, Paisley, UK) was used to assess cell viability using the dye exclusion test.
(§3) To assess cell viability, the MTT assay was performed. Jurkat/K562/HT-29/HCT116 cell lines were seeded in triplicate (10,000 cells/well) in 96-well plates with 50 µL of complete medium and incubated at 37 °C, 5% CO2 for 24 h to allow the cells to adhere to the plate (in the case of adherent cells). […] Untreated cells seeded in triplicate were used as control. The blank was performed in triplicate with 100 µL of culture medium. The cells were incubated with the compounds, in triplicate, in 100 µL of total volume, at 37 °C, 5% CO2 for 72 h. […] In suspension cells (Jurkat), 25 µL of MTT were directly added to each well and, after 3 h 30 m of incubation, 100 µL of DMSO were added to solubilize the formazan crystals; in adherent cells (HT-29 and HCT116), the culture medium was removed, 25 µL of MTT were added to each well and, after 3 h 30 m of incubation, upon MTT removal, 100 µL of DMSO were added to solubilize the formazan crystals. After 15 min, the samples absorbance was measured at 570 nm and the percentage of cell viability was determined.

Jurkat cells = assay: Cell viability, MTT assay, Jurkat; assay type: cell-based, human; conditions: 72 h; for IC50: Homo sapiens, Jurkat, mean ± SD; for percentage of cell viability, MTT, Jurkat: at 100 µM
Experimental: as §1, §2, §3

[3] = Cell viability, MTT assay, HT-29; assay type: cell-based, human; conditions: human, HT-29 colorectal carcinoma cells, read-out: percentage of cell viability, MTT, HT-29; for viability at 72 h, 10 µM: at 10 µM; for viability at 72 h, 100 µM: at 100 µM
Experimental: as §1, §2, §3

[4] = molecular target: T2, 20S proteasome in HCT116 cell lysates, CT-L activity (Homo sapiens, UniProt P28074); assay: Proteasome inhibition assay in cell lysates, HCT116, CT-L; conditions: for percentage of proteasome inhibition, CT-L, cell lysates HCT116: at 100 µM; for percentage of proteasome inhibition, CT-L, cell lysates HCT116 / inhibition at 100 µM: Table 2 legend: bortezomib 10 µM; for inhibition at 100 µM: read-out: percentage of proteasome inhibition, CT-L, cell lysates HCT116, at 100 µM; for inhibition at 10 µM: read-out: percentage of proteasome inhibition, CT-L, cell lysates HCT-116, at 10 µM
T2 sequence (P28074 60-263): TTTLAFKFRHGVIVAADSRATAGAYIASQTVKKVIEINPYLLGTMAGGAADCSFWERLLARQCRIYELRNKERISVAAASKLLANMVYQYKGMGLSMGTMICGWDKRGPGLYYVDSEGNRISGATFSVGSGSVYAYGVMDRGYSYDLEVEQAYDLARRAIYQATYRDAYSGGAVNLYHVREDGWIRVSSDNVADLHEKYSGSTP
T2 sequence (P20618 29-241 partner): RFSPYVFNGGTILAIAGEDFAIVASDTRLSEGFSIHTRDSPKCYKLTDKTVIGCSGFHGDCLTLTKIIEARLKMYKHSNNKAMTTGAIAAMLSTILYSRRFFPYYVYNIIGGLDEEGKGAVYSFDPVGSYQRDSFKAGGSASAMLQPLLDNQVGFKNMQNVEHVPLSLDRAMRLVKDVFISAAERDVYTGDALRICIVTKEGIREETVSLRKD
Experimental: Cells were obtained from several cultured cell lines: Jurkat, K562, HT-29, and HCT116. Pellets with 20 × 10^6 cells were prepared and washed with cold sterile phosphate buffered saline (PBS), 1×, pH 7.4 (Gibco, Thermo Fisher Scientific, Paisley, UK). […] Cells were resuspended in buffer containing 50 mM TRIS-HCl pH 7.4 (Nzytech, Lisboa, Portugal), 5 mM MgCl2 (≥98% purity, Merck, Hamburg, Germany), 1 mM DTT (Merck, Hamburg, Germany), 2 mM ATP (≥98% purity, Enzo Life Sciences Inc., Farmingdale, NY, USA), and 250 mM saccharose (Merck, Hamburg, Germany). Glass beads (Merck, Hamburg, Germany) equivalent to the volume of the cell suspension were added, and the mixture was vortexed for 2 min at 4 °C. Beads and cell debris were removed using 5 min centrifugation at 1000× g and 4 °C, followed by 20 min of centrifugation at 10,000× g at 4 °C. Cell lysates containing proteasomes were resuspended in “activity buffer” [50 mM TRIS-HCl (pH 7.4), 5 mM MgCl2, 1 mM DTT, 2 mM ATP (≥98% purity, Enzo Life Sciences Inc., Farmingdale, NY, USA), and 500 µM EDTA (≥98% purity, Merck, Hamburg, Germany)]. Protein concentration was determined using the Pierce™ BCA protocol (Thermo Fisher Scientific, Rockford, IL, USA). […] DMSO was added in an equal volume as used for the untreated compounds as a way to assess/control its influence in the assay. Untreated cells were used as control. In each well of a 96-well plate, 25 µL of lysate were seeded in duplicate with 25 µL of the compound to test; in the control, 25 µL of activity buffer were added to the 25 µL of lysate. A blank (50 µL of activity buffer) was added to the wells in quadruplicate. Cell lysates, pre-treated or not with different concentrations of the test compounds, were incubated for 30 min at 37 °C. […] Stock solutions (10 mM) of each substrate were prepared in DMSO, diluted in activity buffer, and 50 µL were added to all wells (final concentration of each substrate = 100 µM), followed by an incubation at 37 °C for 60 min. Samples fluorescence was measured at an excitation wavelength of 360 nm and emission of 465 nm; the fluorescence measures were performed using the GloMax-Multi + Detection System (Promega Corp., Madison, WI, USA). Activity was evaluated in fluorescence units, after being converted to percentage of proteasome inhibition and, whenever possible, expressed as IC50 by plotting the inhibition data of each compound at different concentrations against the log of the concentration of the inhibitor, using the GraphPad Prism software version 7. At least eight different concentrations of the test compounds were used.

[5] = molecular target: T3, 20S proteasome in K562 cell lysates, CT-L activity (Homo sapiens, UniProt P28074); assay: Proteasome inhibition assay in cell lysates, K562, CT-L; conditions: for inhibition at 10 µM: read-out: percentage of proteasome inhibition, CT-L, cell lysates K562, at 10 µM; for inhibition at 100 µM: read-out: percentage of proteasome inhibition, CT-L, cell lysates K562, at 100 µM
T3 sequence (P28074 60-263): T2 sequence (P28074 60-263)
T3 sequence (P20618 29-241 partner): T2 sequence (P20618 29-241 partner)
Experimental: Cells were obtained from several cultured cell lines: Jurkat, K562, HT-29, and HCT116. Pellets with 20 × 10^6 cells were prepared and washed with cold sterile phosphate buffered saline (PBS), 1×, pH 7.4 (Gibco, Thermo Fisher Scientific, Paisley, UK). The preparation of the lysates from several cell lines was performed based on the methodology described by Gavioli et al. [67]. Cells were resuspended in buffer containing 50 mM TRIS-HCl pH 7.4 (Nzytech, Lisboa, Portugal), 5 mM MgCl2 (≥98% purity, Merck, Hamburg, Germany), 1 mM DTT (Merck, Hamburg, Germany), 2 mM ATP (≥98% purity, Enzo Life Sciences Inc., Farmingdale, NY, USA), and 250 mM saccharose (Merck, Hamburg, Germany). Glass beads (Merck, Hamburg, Germany) equivalent to the volume of the cell suspension were added, and the mixture was vortexed for 2 min at 4 °C. Beads and cell debris were removed using 5 min centrifugation at 1000× g and 4 °C, followed by 20 min of centrifugation at 10,000× g at 4 °C. Cell lysates containing proteasomes were resuspended in “activity buffer” [50 mM TRIS-HCl (pH 7.4), 5 mM MgCl2, 1 mM DTT, 2 mM ATP (≥98% purity, Enzo Life Sciences Inc., Farmingdale, NY, USA), and 500 µM EDTA (≥98% purity, Merck, Hamburg, Germany)]. Protein concentration was determined using the Pierce™ BCA protocol (Thermo Fisher Scientific, Rockford, IL, USA). […] DMSO was added in an equal volume as used for the untreated compounds as a way to assess/control its influence in the assay. Untreated cells were used as control. In each well of a 96-well plate, 25 µL of lysate were seeded in duplicate with 25 µL of the compound to test; in the control, 25 µL of activity buffer were added to the 25 µL of lysate. A blank (50 µL of activity buffer) was added to the wells in quadruplicate. Cell lysates, pre-treated or not with different concentrations of the test compounds, were incubated for 30 min at 37 °C. […] Stock solutions (10 mM) of each substrate were prepared in DMSO, diluted in activity buffer, and 50 µL were added to all wells (final concentration of each substrate = 100 µM), followed by an incubation at 37 °C for 60 min. Samples fluorescence was measured at an excitation wavelength of 360 nm and emission of 465 nm; the fluorescence measures were performed using the GloMax-Multi + Detection System (Promega Corp., Madison, WI, USA). Activity was evaluated in fluorescence units, after being converted to percentage of proteasome inhibition and, whenever possible, expressed as IC50 by plotting the inhibition data of each compound at different concentrations against the log of the concentration of the inhibitor, using the GraphPad Prism software version 7. At least eight different concentrations of the test compounds were used.

[6] = at 100 µM, Table 2 legend: bortezomib 10 µM
[7] = Table 2 legend: bortezomib 10 µM

Row | Structure (SMILES) | inhibition at 10 µM [1] | percentage of proteasome inhibition, T-L, isolated human 20S proteasome [1] | IC50 [1] | viability at 72 h, 10 µM [2] | viability at 72 h, 100 µM [2] | IC50 (Jurkat cells) | viability at 72 h, 10 µM [3] | viability at 72 h, 100 µM [3] | IC50 [4] | percentage of proteasome inhibition, CT-L, cell lysates HCT116 [4] | inhibition at 100 µM [4] | inhibition at 10 µM [4] | percentage of cell viability, MTT, Jurkat (Jurkat cells) | percentage of proteasome inhibition, CT-L, cell lysates K562 [5, 6] | inhibition at 10 µM [5] | inhibition at 100 µM [5, 7] | percentage of proteasome inhibition, CT-L, cell lysates K562 ([5]; at 10 µM) | percentage of proteasome inhibition, CT-L, cell lysates HCT-116 ([4]; at 10 µM)
1 | C#CCCN1CCN(c2ccc(-n3c(=O)ccc4cnc5ccc(-c6ccc(N)nc6)cc5c43)cc2C(F)(F)F)CC1 [Compound 4, 9-(6-Aminopyridin-3-yl)-1-(4-(4-(but-3-yn-1-yl)piperazin-1-yl)-3-(trifluoromethyl)phenyl)benzo[h][1,6]naphthyridin-2(1H)-one] | 0% | 73.95% and 74% | 48.4 µM | 23.3% | 0% | 1.37 µM | 94.1% | 34.3% | 35.7 µM | 98% | 98% | 22.1% | – | – | – | – | – | –
2 | Cc1ccc(/C(=N/NS(=O)(=O)c2ccc([N+](=O)[O-])cc2)Sc2cc(Cl)c(C)cc2S(N)(=O)=O)cc1 [Compound 3] | 8.8% | 95.30% and 95% | 27.5 µM | 98.1% | 86% | – | 100% | 100% | – | 33% | 33% | 0% | 86% | 59% | 9.34% | 59.1% | – | –
3 | Cc1ccc2ccccc2c1CSc1ncnc2c1ncn2C1OC(CO)C(O)C1O (stereo not drawn) [Compound 1] | 4.43% | 51.65% and 52% | – | 98.7% | 21% | 36.8 µM | 96.7% | 23.3% | 76.4 µM | 90% | 90.2% | 0% | 21% | 63% | 0% | 62.7% | – | –
4 | CC(C)C[C@H](NC(=O)[C@H](Cc1ccccc1)NC(=O)c1cnccn1)B(O)O [Bortezomib, bortezomib, reference compound] | 3.2% | 33.58% and 34% | – | 0% | 0% | 0.00648 µM | 0% | 0% | – | 99.14% and 99% | – | – | – | 99.60% and 100% | – | – | 95.17% | 97.94%
5 | CC(C)c1nc(CN(C)C(=O)N[C@@H](CCN2CCOCC2)C(=O)N[C@H](CC[C@H](Cc2ccccc2)NC(=O)OCc2cncs2)Cc2ccccc2)cs1 [Compound 5, cobicistat, reference compound] | 5.37% | 5.35% and 5% | – | 93.3% | 0% | 43.8 µM | 98.3% | 25.4% | 95.9 µM | 67% | 66.9% | 0% | – | – | – | – | – | –
6 | O=C1c2ccccc2C(=O)c2c(Nc3ccc(S(=O)(=O)N(CCO)CCO)cc3)ccc(O)c21 [Compound 2] | 0% | 97.00% | 25.8 µM | 80.2% | 77.2% | – | 79.9% | 65.4% | 50.9 µM | 74% | 74.2% | 6.93% | 77% | 40% | 13.2% | 40.1% | – | –

Source: PMC10458307, “New Scaffolds of Proteasome Inhibitors: Boosting Anticancer Potential by Exploiting the Synergy of In Silico and In Vitro Methodologies” (Pharmaceuticals, 2023)
